In the supplement of paper PMC10307832:

What was measured:
Experiment in all cases: relative viability (nuclei count vs DMSO), 5 days (fraction); higher = more cells survive
[1] = compound: C1=CC=C(C(=C1)C2=CC=C(C=C2)C3=CSC4=C3C(=C(C(=O)N4)C#N)O)O
Procedure, shortened: (§1)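 Nuclei counted with MetaXpress define viability as the ratio of treated to vehicle wells, given as a median across plates. The lung cancer cell lines were in 1536-well plates, pinned with five √10-spaced library-drug doses and imaged at 4× after 5 days and Hoechst staining. Plates passed with control CV below 25% and at least one doubling.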

Ricolinostat = compound: O=C(CCCCCCNC(=O)c1cnc(N(c2ccccc2)c2ccccc2)nc1)NO [Ricolinostat]
Procedure, shortened: as §1

TGX 221 = compound: CC1=CN2C(=O)C=C(N=C2C(=C1)C(C)NC3=CC=CC=C3)N4CCOCC4 [TGX 221]
Procedure, shortened: as §1

[2] = compound: C1=CC=C(C(=C1)C2=CC=C(C=C2)C3=CSC4=C3C(=C(C(=O)N4)C#N)O)O + Cc1nc(NC(=O)N2CCC[C@H]2C(N)=O)sc1-c1ccnc(C(C)(C)C(F)(F)F)c1 [Alpelisib] (partner 2 µM)
Procedure, shortened: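 Lung cancer cell lines in 1536-well plates got either a single drug or a fixed anchor-drug dose together with five library-drug doses (not always all listed) in √10 steps, by pin tool, on the day after seeding. Nuclei were counted after 5 days, and relative viability is the treated-to-vehicle ratio of nuclei counts. Values are medians of duplicate plates.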

| Cell Line | relative viability ([1]; 0.08 µM) | relative viability ([1]; 0.253 µM) | relative viability ([1]; 0.8 µM) | relative viability ([1]; 2.53 µM) | relative viability ([1]; 8 µM) | relative viability (Ricolinostat; 0.08 µM) | relative viability (Ricolinostat; 0.253 µM) | relative viability (Ricolinostat; 0.8 µM) | relative viability (Ricolinostat; 2.53 µM) | relative viability (TGX 221; 0.08 µM) | relative viability (TGX 221; 0.253 µM) | relative viability (TGX 221; 0.8 µM) | relative viability (TGX 221; 2.53 µM) | relative viability (TGX 221; 8 µM) | relative viability ([2]; first compound 0.08 µM) | relative viability ([2]; first compound 0.253 µM) | relative viability ([2]; first compound 0.8 µM) | relative viability ([2]; first compound 2.53 µM) | relative viability ([2]; first compound 8 µM) |
| --- | --- | --- | --- | --- | --- | --- | --- | --- | --- | --- | --- | --- | --- | --- | --- | --- | --- | --- | --- |
| NCI-H1563 | 0.959 | 0.971 | 0.976 | 0.955 | 0.989 | 0.894 | 1.02 | 0.837 | 0.864 | 0.947 | 0.915 | 0.831 | 0.866 | 0.748 | 0.783 | 1.03 | 0.991 | 0.832 | 0.998 |
| NCI-H1651 | 0.997 | 0.973 | 1.07 | 1 | 0.821 | 0.913 | 0.936 | 0.971 | 0.966 | 0.923 | 0.891 | 0.953 | 0.956 | 0.879 | 0.65 | 1.06 | 1.08 | 1.05 | 0.854 |
| NCI-H1666 | 1.02 | 1.3 | 1.03 | 0.998 | 0.873 | 0.963 | 0.948 | 0.986 | 0.904 | 1.01 | 0.955 | 0.946 | 0.97 | 0.933 | 0.792 | 1.18 | 0.861 | 1.14 | 0.987 |
| NCI-H1703 | 0.929 | 0.965 | 0.902 | 0.892 | 0.789 |  | 1.01 | 0.928 | 1 | 0.892 | 0.785 | 0.776 | 0.672 | 0.634 | 0.31 | 0.313 | 0.328 | 0.301 | 0.385 |
| NCI-H1734 | 0.833 | 0.992 | 0.971 | 1.01 | 0.753 | 0.81 | 1.03 | 0.935 | 0.894 | 0.91 | 0.892 | 1 | 0.934 | 0.9 | 0.658 | 0.675 | 0.697 | 0.724 | 0.542 |
| NCI-H1755 | 1.06 | 1.08 | 0.991 | 1.05 | 0.923 | 0.885 | 0.961 | 0.978 | 1.03 | 0.954 | 0.971 | 0.972 | 0.915 | 0.828 | 0.861 | 0.957 | 0.941 | 1.03 | 0.883 |
| NCI-H1793 | 0.786 | 1.17 | 0.9 | 0.834 | 0.945 |  | 0.924 | 0.905 | 0.898 | 0.858 | 0.628 | 0.748 | 0.574 | 0.668 | 0.699 | 0.624 | 0.598 | 0.581 | 0.45 |
| NCI-H1915 | 0.967 | 1.06 | 0.892 | 1.05 | 0.869 | 0.899 | 0.968 | 0.976 | 0.862 | 0.937 | 0.985 | 0.993 | 0.871 | 0.994 | 1.11 | 1.07 | 1.07 | 1.08 | 0.991 |
| NCI-H1944 | 0.902 | 1.05 | 0.94 | 0.965 | 0.844 | 0.835 | 1.03 | 0.876 | 0.692 | 0.82 | 0.915 | 0.911 | 0.883 | 0.851 | 0.806 | 0.952 | 0.888 | 0.856 | 0.864 |
| NCI-H1975 | 0.892 | 0.949 | 0.932 | 0.887 | 0.772 | 0.928 | 0.895 | 0.803 | 0.872 | 0.911 | 0.866 | 0.998 | 0.844 | 0.785 | 0.508 | 0.694 | 0.542 | 0.721 | 0.485 |
| NCI-H1993 | 0.892 | 1.17 | 0.897 | 0.87 | 0.83 | 0.726 | 1 | 0.999 | 1.04 | 0.878 | 0.762 | 0.886 | 0.681 | 0.877 | 0.684 | 0.624 | 0.69 | 0.594 | 0.655 |
| NCI-H2009 | 0.971 | 1.01 | 0.987 | 1.01 | 0.884 | 0.861 | 0.929 | 0.905 | 0.75 | 0.967 | 0.987 | 1.01 | 0.999 | 0.868 | 1.11 | 1.09 | 1.14 | 1.11 | 1.09 |
| NCI-H2023 | 0.996 | 1.04 | 1.02 | 1.01 | 0.722 | 0.752 | 1.01 | 0.931 | 0.821 | 0.901 | 0.89 | 0.927 | 0.889 | 0.845 | 0.517 | 0.591 | 0.644 | 0.607 | 0.585 |
| NCI-H2085 | 0.905 | 1.13 | 0.982 | 0.964 | 0.917 |  | 0.986 | 0.972 | 0.88 | 1.01 | 0.933 | 0.863 | 0.644 | 0.585 | 0.872 | 1.08 | 1 | 0.973 | 0.879 |
| NCI-H2087 | 1.02 | 1.21 | 1.08 | 1.05 | 0.637 | 0.912 | 1.02 | 0.974 | 0.699 | 1.19 | 1.15 | 1.12 | 1 | 0.988 | 1.07 | 1.27 | 1.16 | 1.11 | 1.13 |
| NCI-H2126 | 0.943 | 1.09 | 1 | 0.963 | 0.979 | 0.718 | 1.01 | 0.989 | 0.969 | 0.945 | 0.989 | 0.968 | 0.837 | 0.944 | 0.784 | 0.809 | 0.748 | 0.77 | 0.731 |
| NCI-H2170 | 1.01 | 0.961 | 0.953 | 0.995 | 0.804 | 0.904 | 0.939 | 1.01 | 1.04 | 0.959 | 0.958 | 0.989 | 0.93 | 0.993 | 0.797 | 0.79 | 0.884 | 0.786 | 0.685 |
| NCI-H2228 | 1.08 | 1.1 | 1.19 | 1.07 | 0.782 | 0.99 | 0.981 | 0.944 | 0.921 | 0.831 | 0.97 | 1.04 | 0.846 | 0.996 | 0.585 | 0.927 | 0.712 | 0.803 | 0.816 |
| NCI-H2347 | 0.996 | 1.15 | 0.989 | 1.07 | 0.916 | 0.911 | 0.964 | 0.994 | 0.92 | 0.898 | 0.987 | 0.986 | 0.88 | 0.851 | 0.959 | 1.09 | 0.968 | 1.04 | 0.964 |
| NCI-H2405 | 0.977 | 0.995 | 0.927 | 0.958 | 0.955 | 0.878 | 1 | 1.01 | 0.802 | 0.949 | 0.991 | 0.968 | 0.954 | 0.889 | 0.761 | 0.834 | 0.867 | 0.715 | 0.715 |
| NCI-H3122 | 0.974 | 1.03 | 1.03 | 1.08 | 0.843 | 0.94 | 1.01 | 0.992 | 1.07 | 1 | 0.985 | 1.02 | 0.969 | 1.01 | 0.795 | 0.909 | 0.89 | 0.844 | 0.902 |
| PC-3 [JPC-3] | 0.898 | 1.11 | 0.959 | 1.08 | 0.944 | 0.801 | 0.977 | 1.01 | 0.883 | 0.971 | 1.05 | 1.04 | 0.998 | 1.03 | 1.17 | 1.05 | 1.06 | 1.12 | 1.01 |
| PC-14 | 0.844 | 1.24 | 0.952 | 1.09 | 0.806 | 0.932 | 0.927 | 0.902 | 0.798 | 0.913 | 0.953 | 0.983 | 1.02 | 0.907 | 0.761 | 1.17 | 0.853 | 0.981 | 0.71 |
| RERF-LC-KJ | 1.07 | 1.07 | 0.987 | 1.01 | 0.8 | 0.955 | 1.02 | 0.984 | 0.814 | 0.895 | 0.933 | 0.964 | 0.917 | 0.938 | 0.769 | 0.935 | 0.961 | 0.782 | 0.69 |
| SK-LU-1 | 1.11 | 0.96 | 0.994 | 1.16 | 0.81 | 0.939 | 0.981 | 0.995 | 0.72 | 0.954 | 0.964 | 0.963 | 0.932 | 0.876 | 0.834 | 1.15 | 1.13 | 1.07 | 0.974 |
| SK-MES-1 | 1.01 | 1.06 | 1.01 | 1.04 | 0.819 | 0.824 | 0.979 | 0.983 | 0.979 | 1.01 | 0.958 | 0.941 | 0.75 | 0.67 | 0.863 | 0.985 | 0.96 | 0.782 | 0.675 |
| SW 1573 | 1.06 | 1.17 | 1.01 | 1.03 | 0.738 | 0.936 | 1.07 | 0.896 | 1.02 | 0.895 | 0.876 | 0.961 | 0.906 | 0.902 | 0.726 | 0.974 | 0.758 | 0.624 | 0.583 |
| UMC-11 | 0.793 | 0.892 | 1.07 | 0.921 | 0.813 | 0.889 | 0.945 | 0.866 | 0.464 | 0.957 | 0.91 | 1 | 0.976 | 1.08 | 0.668 | 0.73 | 1.01 | 1.2 | 0.793 |
